Results published in the OligoGym collection.
Values joined by “and” are separate entries in the source; they are usually repeats but may differ in a detail not shown here. Identical values can stand only once. After the bases stand the sugars from the 5' end (letter, count) and the backbone: PS all phosphorothioate, else s phosphorothioate and o phosphodiester by linkage. Methylation of C is not given here. k = constrained ethyl (cEt); d = 2'-deoxy (DNA)

Target: MALAT1
Settings: ASO, A431, 0.005 µM

Sequence	target mRNA inhibition
CCGCCTCTTAAAGCAC (sugars k3 d10 k3, PS)	-9%
CCGCCTGAGCCCCGGG (sugars k3 d10 k3, PS)	-9%
CCGCTAAGATGCTAGC (sugars k3 d10 k3, PS)	20%
CCGGAAATCGGCCTAC (sugars k3 d10 k3, PS)	20%
CCGTTTTTCAGCTTCC (sugars k3 d10 k3, PS)	6%
CCTAGCTTCCTTCACC (sugars k3 d10 k3, PS)	17%
CCTCTAAGAGACATTC (sugars k3 d10 k3, PS)	29%
CCTGAAAAAGTCTTAG (sugars k3 d10 k3, PS)	28%
CCTGGGTCAGCTGTCA (sugars k3 d10 k3, PS)	51%
CCTGTTAAGACCATCC (sugars k3 d10 k3, PS)	40%
CCTTAAAGTTACATTC (sugars k3 d10 k3, PS)	33%
CCTTAGGATAATAGCG (sugars k3 d10 k3, PS)	60% and 51%
CCTTCCCTATATAAGG (sugars k3 d10 k3, PS)	-41%
CCTTCTATTGGTATTA (sugars k3 d10 k3, PS)	28%
CCTTGAAACCGATTAT (sugars k3 d10 k3, PS)	36%
CGAACTGCTGCTTGCT (sugars k3 d10 k3, PS)	40%
CGAAGAGATACCTGTC (sugars k3 d10 k3, PS)	23%
CGCACGGAAATTTTTC (sugars k3 d10 k3, PS)	-17%
CGCCAGCCCCCCACGG (sugars k3 d10 k3, PS)	-45%
CGCCGCAGGGATTTGA (sugars k3 d10 k3, PS)	19%
CGCTTTGTTGTCTCTC (sugars k3 d10 k3, PS)	87% and 99%

Sequence	target mRNA inhibition
CGCTTTTATTCTGCTT (sugars k3 d10 k3, PS)	6%
CGGAAATCGGCCTACG (sugars k3 d10 k3, PS)	30%
CGGATTTTTACCAACC (sugars k3 d10 k3, PS)	38%
CGGCCCGCACGGAAAT (sugars k3 d10 k3, PS)	24%
CGTAACAGGCCACTGC (sugars k3 d10 k3, PS)	2%
CGTGAAAACCCACTCT (sugars k3 d10 k3, PS)	-6%
CGTGAGAACTGCTCTA (sugars k3 d10 k3, PS)	37%
CGTGTGGAAAGATTTG (sugars k3 d10 k3, PS)	0%
CGTTACGAAAGTCCTT (sugars k3 d10 k3, PS)	25%
CTAAATACCACCACCT (sugars k3 d10 k3, PS)	12%
CTAAGATAGCAGCACA (sugars k3 d10 k3, PS)	11%
CTAAGATTGTAAGCAT (sugars k3 d10 k3, PS)	28%
CTAAGCAATATCTTAG (sugars k3 d10 k3, PS)	15%
CTACACAATTTACATC (sugars k3 d10 k3, PS)	22%
CTACATTTACAAAACG (sugars k3 d10 k3, PS)	29%
CTACTGAAGAGCATTG (sugars k3 d10 k3, PS)	22%
CTACTTTAAGCCTTCG (sugars k3 d10 k3, PS)	31%
CTAGGGAAAAGTGGTT (sugars k3 d10 k3, PS)	-22%
CTATCTTCACCACGAA (sugars k3 d10 k3, PS)	40%
CTCAAAGTCCAATGCA (sugars k3 d10 k3, PS)	48%
CTCAGTACGAAACTCC (sugars k3 d10 k3, PS)	30%

Sequence	target mRNA inhibition
CTCCAATACTTGTCTT (sugars k3 d10 k3, PS)	54% and 44%
CTCCAATGGACATCTC (sugars k3 d10 k3, PS)	29%
CTCCCCTTCAAGCACC (sugars k3 d10 k3, PS)	4%
CTCGCATCACCGGAAT (sugars k3 d10 k3, PS)	-14%
CTCGCCTCCTCCGTGT (sugars k3 d10 k3, PS)	10%
CTCGCTTTCCCTGTGG (sugars k3 d10 k3, PS)	17%
CTCTAAGAGACATTCA (sugars k3 d10 k3, PS)	23%
CTCTATACTTTGAAGG (sugars k3 d10 k3, PS)	20%
CTCTCATTTATTTCGG (sugars k3 d10 k3, PS)	59% and 84%
CTCTGCAGTTTCTATA (sugars k3 d10 k3, PS)	31%
CTCTTGAGGGACAGTA (sugars k3 d10 k3, PS)	4%
CTGAACCGGAGCAGGA (sugars k3 d10 k3, PS)	-13%
CTGAACTATCACAATT (sugars k3 d10 k3, PS)	28%
CTGCAAGGTCTCATAC (sugars k3 d10 k3, PS)	24%
CTGCAGATGCAAGTTA (sugars k3 d10 k3, PS)	49%
CTGCAGTTTCTATAGT (sugars k3 d10 k3, PS)	22%
CTGCCAACTAATTGCC (sugars k3 d10 k3, PS)	-32%
CTGCCTCAATGCCTAC (sugars k3 d10 k3, PS)	44%
CTGCGACTTGCTCCCA (sugars k3 d10 k3, PS)	10%
CTGCGGTTTCCTCAAG (sugars k3 d10 k3, PS)	29%
CTGCTTACAGATTTGC (sugars k3 d10 k3, PS)	49%

Sequence	target mRNA inhibition
CTGGAAGCTCCTTCTA (sugars k3 d10 k3, PS)	25%
CTGGCATGCTGGTCTA (sugars k3 d10 k3, PS)	19%
CTGTCTGAGGCAAACG (sugars k3 d10 k3, PS)	37%
CTGTTAAGACCATCCC (sugars k3 d10 k3, PS)	46%
CTTCAGGATCATTAAG (sugars k3 d10 k3, PS)	3%
CTTCCCGTACTTCTGT (sugars k3 d10 k3, PS)	43%
CTTCGGATGCTTCACT (sugars k3 d10 k3, PS)	33%
CTTCGGTTAAAAATAG (sugars k3 d10 k3, PS)	4%
CTTGAAACCGATTATG (sugars k3 d10 k3, PS)	38%
CTTGAATTACTTCCGT (sugars k3 d10 k3, PS)	56% and 40%
CTTGACCTTAGGATAA (sugars k3 d10 k3, PS)	44%
CTTGGGAAATCTTAGA (sugars k3 d10 k3, PS)	-11%
CTTTAAATGACGCAAT (sugars k3 d10 k3, PS)	35%
CTTTAAATTGGTAGCT (sugars k3 d10 k3, PS)	45%
CTTTAAGCCTTCGGTG (sugars k3 d10 k3, PS)	-3%
CTTTACAGAAGTCTCG (sugars k3 d10 k3, PS)	22%
CTTTATCACTCAGCTG (sugars k3 d10 k3, PS)	37%
CTTTCATAGAGCCTTC (sugars k3 d10 k3, PS)	43%
